Experimental data: US20230322815A1, “NOVEL COMPOUNDS AND THERAPEUTIC USES THEREOF” (University of Huddersfield, priority 2020, published 2023)

Legend:
[1] = test system: panel of human cancer (HT-29, DLD-1, HCT116 p53^+/+ and p53^−/−, PSN1, MiaPaCa2, BxPC3, A549, H460, GBM1) and non-cancer cell lines (ARPE-19, MCF10A, NP1); assay: Chemosensitivity of a panel of human cancer and non-cancer cell lines (MTT, 96 h); type: cell-based; conditions: for IC50: HT-29, DLD-1, HCT116 (p53 wild type and null), BxPC3, A549 and H460 cell lines, 96 h, MTT
Protocol: FIG. 7. Chemosensitivity response of a panel of human cancer and non-cancer cell lines to 96 h continuous exposure to self-assembling test compounds. a, The potency of compounds tested against cancer (HT-29, DLD-1, HCT116 p53^+/+ and […], PSN1, MiaPaCa2, BxPC3, A549, H460 and GBM1) and non-cancer cells (ARPE-19, MCF10A and NP1). Each value represents the mean IC50±standard deviation from a minimum of three independent experiments. b,c, The selectivity index (SI) for [L2Cu3]^6+ (b) and [L2Zn3]^6+ (c) for the indicated cancer cell lines; SI is defined as the mean IC50 against the particular non-cancer cell line model divided by the mean IC50 against the particular cancer cell line. […] As the SI value is calculated using the mean IC50 values, experimental error is not included in these figures. d,e, IC50 values for the clinically approved platinates (cisplatin, oxaliplatin and carboplatin) and [L2Mn3]^6+ and the corresponding SI results.
All cell lines used were maintained at low passage in antibiotic-free media and were obtained from ATCC (LGC Standards, Middlesex, UK) unless otherwise stated (Methods). HT29, DLD-1, HCT116 p53^+/+ and HCT116 p53^−/− are all colorectal adenocarcinoma cell lines derived from different individuals and harbor different combinations of oncogenic lesions (except for the HCT116 isogenic cancer cell clones that are genetically identical except for p53 status). PSN-1, BxPC-3 and MiaPaCa2 are pancreatic carcinoma cell lines and A549 and H460 are lung carcinoma cell lines. HT29, DLD-1, PSN-1, BxPC-3, A549 and H460 cell lines were cultured in RPMI-1640 growth media (Sigma) containing 2 mM L-glutamine, 1 mM sodium pyruvate and 10% fetal bovine serum (FBS). HCT116 (p53^+/+ and p53^−/−) and MiaPaCa2 cell lines were cultured in Dulbecco's Modified Eagle's Medium (Sigma), 2 mM L-glutamine and 10% FBS. The ARPE-19 retinal epithelial non-cancer cell line (Dunn et al., 1996) was cultured in DMEM/F12 media (Gibco), 2 mM L-glutamine, 1 mM sodium pyruvate and 10% FBS. The MCF10A non-cancerous human breast epithelial cell line was cultured in Minimal Essential Media Eagle (Sigma), 2 mM L-glutamine, 1 mM sodium pyruvate, 10% FBS and 1×non-essential amino acids (NEAA). NP1 and GBM1 cells were cultured on plasticware coated with poly-L-ornithine (5 μg/ml) and laminin (2.4 μg/ml) (Polson et al., 2018; Da Silva et al., 2019). […]
[L2M3]^6+ and all the other self-assembling complexes were freshly formed by adding DMSO to individual components mixing together by pipetting. […] Media and MTT were removed and formazan crystals were dissolved in 150 μl of DMSO and the absorbance of the resulting solution determined at 540 nm. […]

[2] = Dephosphorylation of phosphorylated amino acid (31P NMR); conditions: 37° C.
Protocol: (§1) FIG. 6. Phosphatase activity of [L2Zn3]^6+. ^31P NMR spectra using different substrates including PhOPO3 (spectra A to D), serine phosphate (spectra E to H), threonine phosphate (spectra I to L) and tyrosine phosphate (spectra M to P). Specific details for each ^31P NMR spectra are as follows: Spectra A, E, I and M represent substrate alone (44 hrs incubated @ 37° C.); Spectra B, F, J and N represents [L2Zn3]^6+ plus substrate (t=0 min); Spectra C, G, K and O represents [L2Zn3]^6+ plus substrate incubated @ 37° C. for 19 hours; Spectra D, H, L and […] represents [L2Zn3]^6+ plus substrate incubated @ 37° C. for 44 hours. The ^31P NMR of [L2Zn3(PO4)]^3+ gives a signal at 8.6 ppm.
(§2) Given the importance of protein phosphorylation in inter- and intra-cellular signalling and to cell function, and its common dysregulation in cancers,^30, 31 it was next analysed whether the Zn^2+ complex could dephosphorylate the phosphorylated amino acids serine, threonine and tyrosine. […] Dephosphorylation of the amino acid threonine-OPO3^2− by the Zn^2+ complex was much slower however and after 48 hrs threonine-OPO3^2− was still the major species (FIG. 6, spectra I-L). Differences in reactivity towards different substrates can be attributed to both steric and electronic effects. […]

[3] = as above; conditions: 37° C.; remark: listed apart in the source
Protocol: as §1, §2

Compound | IC50 [1] | selectivity indices ([1]; many of the cancer cell lines) | time to completion of dephosphorylation [2] | time to completion of dephosphorylation [3] | rate of dephosphorylation ([3]; after 48 hrs threonine-OPO3^2− still the major species)
[Cu+2].[Cu+2].[Cu+2].c1ccc(-c2csc(NCCN(CCNc3nc(-c4ccccn4)cs3)CCNc3nc(-c4ccccn4)cs3)n2)nc1.c1ccc(-c2csc(NCCN(CCNc3nc(-c4ccccn4)cs3)CCNc3nc(-c4ccccn4)cs3)n2)nc1 [[L2Cu3]^6+] | mostly sub-μM | > 100 | – | – | –
[Zn+2].[Zn+2].[Zn+2].c1ccc(-c2csc(NCCN(CCNc3nc(-c4ccccn4)cs3)CCNc3nc(-c4ccccn4)cs3)n2)nc1.c1ccc(-c2csc(NCCN(CCNc3nc(-c4ccccn4)cs3)CCNc3nc(-c4ccccn4)cs3)n2)nc1 [[L2Zn3]^6+] | mostly sub-μM | – | 48 h | 48 h | much slower
